The values below come from ChEMBL document CHEMBL4152322, “Dihydropyrimidinone/1,2,3-triazole hybrid molecules: Synthesis and anti-varicella-zoster virus (VZV) evaluation” (Eur J Med Chem, 2018).

Active and inactive are the calls of the source. No cut-off for these calls is given here.

A word on the EC50: it is the concentration giving half of the maximal effect. In general, CC50 refers to the concentration that lowers cell viability or growth by half. Read a low CC50 as greater toxicity to the cells.

Data set [1] relates to Human alphaherpesvirus 3. In words: Antiviral activity against thymidine kinase expressing Varicella-Zoster virus Oka infected in human HEL cells assessed as reduction in plaque formation after 5 days. The class given is functional, organism-based. To be noted: Human alphaherpesvirus 3, strain Oka vaccine, 120 h.
In data set [2] the test system is Human alphaherpesvirus 3. In words: Antiviral activity against thymidine kinase deficient Varicella-Zoster virus 07-1 infected in human HEL cells assessed as reduction in plaque formation after 5 days. The class given is functional, organism-based. As to conditions: Human alphaherpesvirus 3, 07-1, HEL, 120 h.
Data set [3] relates to Human betaherpesvirus 5. In words: Antiviral activity against HCMV Davis infected in human HEL cells assessed as reduction in virus-induced cytopathic effect after 7 days. The format is functional, organism-based.
For data set [4], the system named is Human betaherpesvirus 5. In words: Antiviral activity against HCMV AD169 infected in human HEL cells assessed as reduction in virus-induced cytopathic effect after 7 days. The class given is functional, organism-based. On the technique in general: Protection from cytopathic effect is a common read-out in antiviral testing.
A short description of data set [5]: Cytostatic activity against human HEL cells after 3 days by coulter counter method. The class given is ADME, cell-based.

As to `CC(=O)C1=C(C)N(Cc2cn(Cc3ccc([N+](=O)[O-])cc3)nn2)C(=O)NC1c1ccccc1` (stereo unspecified), the EC50 turned out to be 48.9 µM in data set [1] and 42.6 µM in data set [2]. In addition, the result in data set [3] and in data set [4] was inactive.

With `CC(=O)C1=C(C)N(Cc2cn(Cc3ccc([N+](=O)[O-])cc3)nn2)C(=O)N(Cc2cn(Cc3ccc([N+](=O)[O-])cc3)nn2)C1c1ccccc1` (stereo unspecified), the figures for the EC50 in data set [1] and in data set [2] were 3.62 µM and 7.85 µM, respectively. In addition, the CC50 at 72 h in data set [5] is over 100 µM. Further, the outcome in data set [3] and in data set [4] was inactive.

As to `COc1ccc(OC)c(C2NC(=O)N(Cc3cn(Cc4ccc([N+](=O)[O-])cc4)nn3)C(C)=C2C(C)=O)c1` (stereo unspecified), the values for the EC50 in data set [1] and in data set [2] were 44.7 µM and 48.1 µM, respectively. The result in data set [3] and in data set [4] was inactive.

For the compound `O=c1[nH]c(=O)n([C@H]2C[C@H](O)[C@@H](CO)O2)cc1/C=C/Br` [BRIVUDINE], the figures for the EC50 in data set [1] and in data set [2] were 0.025 µM and 104 µM, respectively. The compound further registered a CC50 at 72 h in data set [5] of over 300 µM.

As for `CC(=O)C1=C(C)N(Cc2cn(Cc3ccc([N+](=O)[O-])cc3)nn2)C(=O)N(Cc2cn(Cc3ccc([N+](=O)[O-])cc3)nn2)C1c1ccc(OCc2cn(Cc3ccc([N+](=O)[O-])cc3)nn2)cc1` (stereo unspecified), the EC50 in data set [1] is 69.9 µM; in data set [2] it was over 20 µM. The result in data set [3] and in data set [4] was inactive.

Turning to `COc1ccc(OC)c(C2C(C(C)=O)=C(C)N(Cc3cn(Cc4ccccc4)nn3)C(=O)N2Cc2cn(Cc3ccccc3)nn2)c1` (stereo unspecified), the EC50 in data set [1] was 9.85 µM; in data set [2] it was 8.87 µM. Also, the CC50 at 72 h in data set [5] was over 100 µM. Moreover, the result in data set [3] and in data set [4] was inactive.

On to `CC(=O)C1=C(C)N(Cc2cn(Cc3ccccc3)nn2)C(=O)NC1c1ccc(OCc2cn(Cc3ccccc3)nn2)cc1` (stereo unspecified), for which the EC50 in data set [1] was determined as 11.3 µM; in data set [2] it was 10.8 µM. This compound also registered a CC50 at 72 h in data set [5] of over 100 µM. Also, the result in data set [3] and in data set [4] was inactive.

Turning to `CC(=O)C1=C(C)N(Cc2cn(Cc3ccccc3)nn2)C(=O)N(Cc2cn(Cc3ccccc3)nn2)C1c1ccc(N(C)C)cc1` (stereo unspecified), the figures for the EC50 in data set [1] and in data set [2] were 23.2 µM and 17 µM, respectively. Besides, the result in data set [3] and in data set [4] was inactive.

In the case of `CC(=O)C1=C(C)N(Cc2cn(Cc3ccccc3)nn2)C(=O)N(Cc2cn(Cc3ccccc3)nn2)C1c1ccccc1` (stereo unspecified), the figures for the EC50 in data set [1] and in data set [2] were 8.38 µM and 6.08 µM, respectively. The compound further returned a CC50 at 72 h in data set [5] of 7.02 µM. Further, the result in data set [3] and in data set [4] was inactive.

For `Nc1nc2c(ncn2COCCO)c(=O)[nH]1` [ACYCLOVIR], the EC50 in data set [1] came out at 2.35 µM; in data set [2] it was 133 µM. Besides, the CC50 at 72 h in data set [5] was over 440 µM.

For the compound `COc1ccc(OC)c(C2NC(=O)N(Cc3cn(Cc4ccccc4)nn3)C(C)=C2C(C)=O)c1` (stereo unspecified), the results for the EC50 in data set [1] and in data set [2] were 48.9 µM and 50.2 µM, respectively. In addition, the result in data set [3] and in data set [4] was inactive.
